Tests used:
[1] = test system: 40 human urothelial (bladder) cancer cell lines; assay: Alamar Blue growth inhibition of 40 bladder cancer cell lines, single drugs, 72 hours; format: cell-based; details: for criterion dose (CR): minimum dose at which at least 25% of cell lines showed growth inhibition >50%; for number of resistant cell lines / number of sensitive cell lines: of 40 bladder cancer cell lines; for number of sensitive cell lines: log10(GI50) ≤ CR
Protocol: The human bladder cancer cell lines and the respective growth conditions used in this study have been previously described (6, 7). Cisplatin was purchased from Sigma (St. Louis, Mo.), dissolved in Dulbecco's phosphate-buffered saline, and aliquoted in 1 mg/ml stocks. Paclitaxel was purchased from Sigma (St. Louis, Mo.), dissolved in Dimethyl Sulphoxide (DMSO), and aliquoted in 1 mM stocks. Gemcitabine was purchased from the University of Virginia Medical Center Pharmacy, dissolved in PBS, and aliquoted in 0.1 M stocks. Cell lines were maintained in appropriate media, in a humidified atmosphere containing 5% CO2 in air, except CRL2169 (SW780) which requires no CO2 for its growth. Cell lines were subcultured in an aqueous solution of 0.05% trypsin (Difco, 1:250) and 0.016% EDTA. Each cell line was used within 10 passages from its archival passage number in order to minimize any long term cell culture effects. Gene expression analysis of bladder cell lines was carried out as previously described using the HG-U133A GeneChip® array (Affymetrix®, Santa Clara, Calif., USA) (6, 7). The image file was analyzed with RMA, to obtain the expression intensity values of the microarray data (8).
Cell lines were seeded in 96-well cell culture plates (Costar) at a density of 1000 cells/well. 24 hours later, cells were exposed to the drugs diluted in RPMI-1640 medium, containing 10% FBS, concentration that is required by more than 75% of cell lines for their normal growth, at a total volume of 200 μL. Each drug dose was plated in triplicate, and the experiment was repeated four to seven times. The doses for Cisplatin were 200, 400, 800, 1600, 3200, and 6400 ng/ml; for Paclitaxel 0.0001, 0.001, 0.002, 0.005, 0.01, and 0.1 μM; for Gemcitabine 0.001, 0.01, 0.1, 1, 10, 100 μM.
From the dose-response data, log 10(GI50) values (log base 10 of concentration required to inhibit cell growth by 50% in comparison with untreated control) were estimated for all the cell lines by deriving log(dose) concentration curves on cell count percents as described below. To estimate the GI50 values reliably, we computed Euclidean distances among all replicated experiments, and excluded outlying experiments if they were in the top 20% among all measured distances. This percent was determined heuristically based on the general observations in experimental quality control. […] Subsequently, the data were fitted to a sigmoidal function such as the following nonlinear regression model for estimating each cell line's dose response curve:
Percent=1−1/(1+exp(−(log 10(dose)−β)/α),
where α and β determine the shape of a fitted line.
This sigmoidal regression function was used to capture the natural shapes of drug dose responses. Thus, the estimated β is the predicted log 10(GI50) value, the expected log concentration achieving the cell count reduction of 50%. Similarly, log 10(GI30), and log 10(GI70) values, i.e. the concentrations required to inhibit cell growth by 30%, and 70% in comparison with untreated control, were also calculated.
Cell line drug sensitivity was classified using the GI estimates and application of a criterion dose (CR) concept. […] Using these CR concentrations, each cell line was defined as sensitive if log 10(GI50)≦CR; strongly sensitive if […], or resistant if log 10(GI70)>CR, and intermediate if log 10(GI50)>CR and log 10(GI70)<CR.
To approach the development of molecular models of chemotherapeutic sensitivity in human bladder cancer, we focused on a well-defined series of 40 urothelial cell lines for which we could measure sensitivity to relevant chemotherapeutic agents in vitro and correlate these responses with global measurements of gene expression.

[2] = test system: BLA-40 human bladder cancer cell lines; assay: In vitro growth inhibition (GI50) in BLA-40 cells, 48 hours, as for NCI-60; format: cell-based; details: for potency in BLA-40 compared with NCI-60 tissue panels: BLA-40 vs nine tissue-specific panels of NCI-60
Excerpt: Sensitivity of human bladder cancer cells to cisplatin, paclitaxel and NSC 637993. To test the predictive models, we performed in vitro drug response experiments, and then determined GI50 values for each bladder cell line for cisplatin, paclitaxel, and compound NSC 637993 (Supplementary Materials and Methods). Sensitivity to the agents was generated by a dose response experiments carried out on the BLA-40 cells as described for the NCI-60. The final concentrations of cisplatin used were 200, 400, 800, 1600, 3200, and 6400 ng/ml; those of Paclitaxel and NSC 637993 were 0.1, 1, 2, 5, 10, and 100 nM. In each case, the cells were plated on Day 0, exposed to drug for 48 hours) at 37° C., and then assayed. Each experiment was repeated three to five independent times, and the results were expressed as a fraction of the difference between initial cell count and untreated control. Log 10(GI50) values were then estimated from the resulting dose-response curves. Bladder cell lines were defined as sensitive or resistant as described above for the NCI-60 panel. […]
In the first application of the COXEN algorithm, for example, Cell Sets 1 and 2 were the NCI-60 and BLA-40 cell panels, respectively; the Step 1 drug activities were those assessed by DTP in the NCI-60 using a 48-hour sulforhodamine B assay; the “molecular characteristic” in Steps 2 and 4 was transcript expression level, as assessed using Affymetrix HG-U133A microarrays; the algorithm in Step 3 was “Significance Analysis of Microarrays (SAM)” or two-sample t-test; Step 5 was a novel “co-expression extrapolation” algorithm; Step 6 was another novel algorithm, “Misclassification-Penalized Posterior” (MiPP), which we recently introduced for selection of the best mathematical “models” for the prediction; and applying the prediction models obtained in Step 6, independent testing of the predictions on BLA-40 cells was performed, mimicking the way the assay for the NCI-60 by DTP.

breast cancer = details: cited from earlier work
bladder cancer = details: cited from earlier work
breast cancer patients = details: 24 patients, four cycles of neoadjuvant docetaxel, original study; cited from earlier work
[3] = test system: estrogen receptor-positive breast cancer patients; assay: TAM-60 breast cancer clinical trial, time to recurrence classification; format: in vivo, human; details: of 60 patients
Protocol: In the tamoxifen clinical trial (TAM-60), 60 postmenopausal breast cancer patients with estrogen receptor-positive tumors were treated and followed for up to 180 months. Genome-wide expression profiling was performed on the primary tumors using a customized cDNA microarray platform.

Compound | criterion dose (CR) [1] | number of resistant cell lines [1] | number of sensitive cell lines [1] | also measured
Nc1ccn([C@@H]2O[C@H](CO)[C@@H](O)C2(F)F)c(=O)n1 [Gemcitabine] | 0.1 µM | 11 | 8 | 
CCN(CC)CCNc1ccc2nc(C)n3c4ccc(OC)cc4c(=O)c1c23 [NSC 637993] |  |  |  | proportion of BLA-40 cell types with GI50 less than 10-6M ([2]; BLA-40 panel): > 60%; potency in BLA-40 compared with NCI-60 tissue panels [2]: more effective at a lower dose (1×10^−6M) in bladder cancer; potency in BLA-40 compared with NCI-60 tissue panels ([2]; listed as NSC637993): more potent overall in the BLA-40 bladder cancers than in any of the organ-of-origin types included in the NCI-60
CC(=O)O[C@H]1C(=O)[C@@]2(C)[C@H]([C@H](OC(=O)c3ccccc3)[C@]3(O)C[C@H](OC(=O)[C@H](O)[C@@H](NC(=O)c4ccccc4)c4ccccc4)C(C)=C1C3(C)C)[C@]1(OC(C)=O)CO[C@@H]1C[C@@H]2O [Paclitaxel] | 0.005 µM | 11 | 17 | 
N.N.[Cl][Pt][Cl] [cisplatin] | 400 ng/mL | 11 | 16 | 
O=c1[nH]cc(F)c(=O)[nH]1 [compound 19893] |  |  |  | Clinical response rate (breast cancer): 44.4; Clinical response (bladder cancer): 23.1
CC(=O)O[C@@]12CO[C@@H]1C[C@H](O)[C@@]1(C)C(=O)[C@H](O)C3=C(C)[C@@H](OC(=O)[C@H](O)[C@@H](NC(=O)OC(C)(C)C)c4ccccc4)C[C@@](O)([C@@H](OC(=O)c4ccccc4)[C@H]21)C3(C)C [docetaxel] |  |  |  | number of non-responder patients (breast cancer patients): 13; number of responder patients (breast cancer patients): 11
CC/C(=C(\c1ccccc1)c1ccc(OCCN(C)C)cc1)c1ccccc1 [tamoxifen] |  |  |  | number of non-responders (recurrence <50 months) [3]: 16; number of responders (long-term survival >130 months) [3]: 11

From patent US20080118576A1, “PREDICTION OF AN AGENT'S OR AGENTS' ACTIVITY ACROSS DIFFERENT CELLS AND TISSUE TYPES” (priority 2006, published 2008)
